# Measured values reported in paper PMC3755495 (Biochemical pharmacology, 2013).
# Molecular target: T1, MCAK (Kinesin-like protein KIF2C/MCAK) (Homo sapiens, UniProt Q99661)
# T1 sequence (Q99661 2-725): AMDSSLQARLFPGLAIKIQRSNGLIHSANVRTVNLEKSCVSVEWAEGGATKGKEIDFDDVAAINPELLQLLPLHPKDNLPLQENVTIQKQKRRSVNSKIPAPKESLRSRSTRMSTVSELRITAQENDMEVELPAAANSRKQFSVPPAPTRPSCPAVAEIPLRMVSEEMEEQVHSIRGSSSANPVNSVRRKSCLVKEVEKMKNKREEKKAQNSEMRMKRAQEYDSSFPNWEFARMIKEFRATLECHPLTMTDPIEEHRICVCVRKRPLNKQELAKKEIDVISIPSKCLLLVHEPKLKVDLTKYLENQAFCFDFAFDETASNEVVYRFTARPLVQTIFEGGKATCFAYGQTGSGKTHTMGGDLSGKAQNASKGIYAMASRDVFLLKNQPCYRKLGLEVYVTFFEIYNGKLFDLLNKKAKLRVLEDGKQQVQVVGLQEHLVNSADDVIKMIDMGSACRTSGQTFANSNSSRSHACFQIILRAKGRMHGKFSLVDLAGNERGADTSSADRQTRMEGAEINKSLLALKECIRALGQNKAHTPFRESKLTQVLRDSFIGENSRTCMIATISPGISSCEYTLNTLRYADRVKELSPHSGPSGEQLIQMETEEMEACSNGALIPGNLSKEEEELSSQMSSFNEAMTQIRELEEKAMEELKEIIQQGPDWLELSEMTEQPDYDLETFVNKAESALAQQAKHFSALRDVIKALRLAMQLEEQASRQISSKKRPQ
# Experiment: displacement of MCAK from immobilized ligand […], Western blot
# Type: biochemical
# Conditions: MgATP in NP-40 lysis buffer, 15 min
compound,measurement,value
Nc1ncnc2c1ncn2[C@@H]1O[C@H](COP(=O)(O)OP(=O)(O)OP(=O)(O)O)[C@@H](O)[C@H]1O [ATP],"displacement of MCAK from immobilized ligand 3, Western blot",MCAK binding to the immobilized drug could be inhibited by increasing concentrations of ATP
